Results taken from patent US7432227B2, “6-alkyl or alkenyl-4-aminopicolinates and their use as herbicides” (Dow AgroSciences LLC, priority 2003, dated 2008).
One block for each compound: values may come before it.

Tests used:
[1] = test system: Ivyleaf Morningglory (Ipomoea hederacea); experiment: Preemergence herbicidal activity, Ivyleaf Morningglory; format: in vivo; conditions: pre-emergence, 504 h, visual score after 3 weeks, 100 = complete kill or no germination, read-out: Pre-emergent % control IPOHE; for pest or weed control at 280 ppm: rate 280 ppm; for pest or weed control at 560 ppm: rate 560 ppm; for pest or weed control at 140 ppm: rate 140 ppm
Source text: (§1) Seeds of the desired test plant species were planted in a soil matrix prepared by mixing a loam soil (43 percent silt, 19 percent clay, and 38 percent sand, with a pH of about 8.1 and an organic matter content of about 1.5 percent) and sand in a 70 to 30 ratio. The soil matrix was contained in plastic pots with a surface area of 113 square centimeters. When required to ensure good germination and healthy plants, a fungicide treatment and/or other chemical or physical treatment was applied. A weighed amount, determined by the highest rate to be tested, of each test compound was placed in a 20 mL glass vial and was dissolved in 4 mL of a 97:3 v/v (volume/volume) mixture of acetone and dimethyl sulfoxide to obtain concentrated stock solutions. […] The stock solutions obtained were diluted with a 99.9:0.1 mixture of water and Tween® […] surfactant to obtain application solutions of known concentration. The solutions containing the highest concentration to be tested were prepared by diluting 2 mL aliquots of the stock solution with 15 mL of the mixture and lower concentrations were prepared by serial dilution of the stock solution. A 2.5 mL aliquot of each solution of known concentration was sprayed evenly onto the soil surface (113 sq. cm) of each seeded pot using a Cornwall 5.0 mL glass syringe fitted with a TeeJet TN-3 hollow cone nozzle to obtain thorough coverage of the soil in each pot. Control pots were sprayed in the same manner with the aqueous mixture. The treated pots and control pots were placed in a greenhouse maintained with an approximate 15 hr photoperiod and temperatures of about 23-29° C. during the day and 22-28° C. during the night. Nutrients and water were added on a regular basis and supplemental lighting was provided with overhead metal halide 1000-Watt lamps as necessary. The water was added by top-irrigation. After 3 weeks the condition of the test plants that germinated and grew as compared with that of the untreated plants that germinated and grew was determined visually and scored on a scale of 0 to 100 percent where 0 corresponds to no injury and 100 corresponds to complete kill or no germination.

[2] = test system: Crabgrass(large) (Digitaria sanguinalis); experiment: Preemergence herbicidal activity, Crabgrass(large); format: in vivo; conditions: pre-emergence, 504 h, visual score after 3 weeks, 100 = complete kill or no germination, read-out: Pre-emergent % control DIGSA; for pest or weed control at 280 ppm: rate 280 ppm; for pest or weed control at 560 ppm: rate 560 ppm; for pest or weed control at 140 ppm: rate 140 ppm
Source text: as §1

[3] = test system: Lambsquarter (Chenopodium album); experiment: Preemergence herbicidal activity, Lambsquarter; format: in vivo; conditions: pre-emergence, 504 h, visual score after 3 weeks, 100 = complete kill or no germination, read-out: Pre-emergent % control CHEAL; for pest or weed control at 280 ppm: rate 280 ppm; for pest or weed control at 560 ppm: rate 560 ppm; for pest or weed control at 140 ppm: rate 140 ppm
Source text: as §1

[4] = test system: Cocklebur (Xanthium strumarium); experiment: Postemergence herbicidal activity, Cocklebur; format: in vivo; conditions: post-emergence, 336 h, visual score after 2 weeks, 0 = no injury, 100 = complete kill, read-out: Post-emergent % control XANST; for pest or weed control at 250 ppm: rate 250 ppm
Protocol: (§2) Seeds of the desired test plant species were planted in Grace-Sierra MetroMix® 306 planting mixture, which typically has a pH of 6.0 to 6.8 and an organic matter content of about 30 percent, in plastic pots with a surface area of 64 square centimeters. When required to ensure good germination and healthy plants, a fungicide treatment and/or other chemical or physical treatment was applied. The plants were grown for 7-21 days in a greenhouse with an approximate 15 hr photoperiod which was maintained at about 23-29° C. during the day and 22-28° C. during the night. Nutrients and water were added on a regular basis and supplemental lighting was provided with overhead metal halide 1000-Watt lamps as necessary. The plants were employed for testing when they reached the first or second true leaf stage. A weighed amount, determined by the highest rate to be tested, of each test compound was placed in a 20 mL glass vial and was dissolved in 4 mL of a 97:3 v/v (volume/volume) mixture of acetone and dimethyl sulfoxide (DMSO) to obtain concentrated stock solutions. […] The concentrated stock solutions obtained were diluted with an aqueous mixture containing acetone, water, isopropyl alcohol, DMSO, Atplus 411F crop oil concentrate, and Triton X-155 surfactant in a 48.5:39:10:1.5:1.0:0.02 v/v ratio to obtain spray solutions of known concentration. The solutions containing the highest concentration to be tested were prepared by diluting 2 mL aliquots of the stock solution with 13 mL of the mixture and lower concentrations were prepared by serial dilution of the stock solution. Approximately 1.5 mL aliquots of each solution of known concentration were sprayed evenly onto each of the test plant pots using a DeVilbiss atomizer driven by compressed air pressure of 2 to 4 psi (140 to 280 kilopascals) to obtain thorough coverage of each plant. Control plants were sprayed in the same manner with the aqueous mixture. In this test an application rate of 1 ppm results in the application of approximately 1 g/Ha. The treated plants and control plants were placed in a greenhouse as described above and watered by sub-irrigation to prevent wash-off of the test compounds. After 2 weeks the condition of the test plants as compared with that of the untreated plants was determined visually and scored on a scale of 0 to 100 percent where 0 corresponds to no injury and 100 corresponds to complete kill.

[5] = test system: Giant Foxtail (Setaria faberi); experiment: Postemergence herbicidal activity, Giant Foxtail; format: in vivo; conditions: post-emergence, 336 h, visual score after 2 weeks, 0 = no injury, 100 = complete kill, read-out: Post-emergent % control SETFA; for pest or weed control at 250 ppm: rate 250 ppm
Protocol: as §2

[6] = test system: Barnyardgrass (Echinochloa crus-galli); experiment: Postemergence herbicidal activity, Barnyardgrass; format: in vivo; conditions: post-emergence, 336 h, visual score after 2 weeks, 0 = no injury, 100 = complete kill, read-out: Post-emergent % control ECHCG; for pest or weed control at 250 ppm: rate 250 ppm
Protocol: as §2

[7] = test system: Giant Foxtail (Setaria faberi); experiment: Preemergence herbicidal activity, Giant Foxtail; format: in vivo; conditions: pre-emergence, 504 h, visual score after 3 weeks, 100 = complete kill or no germination, read-out: Pre-emergent % control SETFA; for pest or weed control at 280 ppm: rate 280 ppm; for pest or weed control at 560 ppm: rate 560 ppm; for pest or weed control at 140 ppm: rate 140 ppm
Source text: as §1

[8] = test system: Lambsquarter (Chenopodium album); experiment: Postemergence herbicidal activity, Lambsquarter; format: in vivo; conditions: post-emergence, 336 h, visual score after 2 weeks, 0 = no injury, 100 = complete kill, read-out: Post-emergent % control CHEAL; for pest or weed control at 250 ppm: rate 250 ppm
Protocol: as §2

melting point: 68 to 71 °C
SMILES: C=Cc1nc(C(=O)OC)c(Cl)c(N)c1F [Compound 1, Methyl 4-amino-3-chloro-5-fluoro-6-vinylpyridine-2-carboxylate]
pest or weed control at 280 ppm [1]: 100% | pest or weed control at 280 ppm [2]: 95% | pest or weed control at 280 ppm [3]: 100% | pest or weed control at 250 ppm [4]: 100% | pest or weed control at 250 ppm [5]: 50% | pest or weed control at 250 ppm [6]: 60% | pest or weed control at 280 ppm [7]: 90% | pest or weed control at 250 ppm [8]: 100%

SMILES: C=Cc1cc(N)c(Cl)c(C(=O)OC)n1 [Compound 2, Methyl 4-amino-3-chloro-6-vinylpyridine-2-carboxylate]
pest or weed control at 560 ppm [1]: 60% | pest or weed control at 560 ppm [2]: 0% | pest or weed control at 560 ppm [3]: 100% | pest or weed control at 250 ppm [4]: 80% | pest or weed control at 250 ppm [5]: 10% | pest or weed control at 250 ppm [6]: 0% | pest or weed control at 560 ppm [7]: 0% | pest or weed control at 250 ppm [8]: 85%

melting point: 109 to 110 °C
SMILES: CCc1nc(C(=O)OC)c(Cl)c(N)c1F [Compound 3, Methyl 4-amino-3-chloro-6-ethyl-5-fluoropyridine-2-carboxylate]
pest or weed control at 140 ppm [1]: 100% | pest or weed control at 140 ppm [2]: 100% | pest or weed control at 140 ppm [3]: 100% | pest or weed control at 250 ppm [4]: 100% | pest or weed control at 250 ppm [5]: 80% | pest or weed control at 250 ppm [6]: 85% | pest or weed control at 140 ppm [7]: 100% | pest or weed control at 250 ppm [8]: 100%

melting point: 144 to 145 °C
SMILES: CCc1nc(C(=O)O)c(Cl)c(N)c1F [Compound 5, 4-Amino-3-chloro-6-ethyl-5-fluoropyridine-2-carboxylic acid]
pest or weed control at 140 ppm [1]: 100% | pest or weed control at 140 ppm [2]: 90% | pest or weed control at 140 ppm [3]: 100% | pest or weed control at 250 ppm [4]: 100% | pest or weed control at 250 ppm [5]: 70% | pest or weed control at 250 ppm [6]: 85% | pest or weed control at 140 ppm [7]: 90% | pest or weed control at 250 ppm [8]: 100%

SMILES: Cc1nc(C(=O)O)c(Cl)c(N)c1F [Compound 7, 4-Amino-3-chloro-6-methyl-5-fluoropyridine-2-carboxylic acid]
pest or weed control at 295 ppm ([1]; rate 295 ppm): 98% | pest or weed control at 295 ppm ([2]; rate 295 ppm): 85% | pest or weed control at 295 ppm ([3]; rate 295 ppm): 98% | pest or weed control at 288 ppm ([4]; rate 288 ppm): 100% | pest or weed control at 288 ppm ([5]; rate 288 ppm): 85% | pest or weed control at 288 ppm ([6]; rate 288 ppm): 80% | pest or weed control at 295 ppm ([7]; rate 295 ppm): 85% | pest or weed control at 288 ppm ([8]; rate 288 ppm): 98%

SMILES: Cc1cc(N)c(Cl)c(C(=O)O)n1 [Compound 8, 4-Amino-3-chloro-6-methylpyridine-2-carboxylic acid]
pest or weed control at 280 ppm [1]: 85% | pest or weed control at 280 ppm [2]: 20% | pest or weed control at 280 ppm [3]: 100% | pest or weed control at 250 ppm [4]: 70% | pest or weed control at 250 ppm [5]: 0% | pest or weed control at 250 ppm [6]: 0% | pest or weed control at 280 ppm [7]: 10% | pest or weed control at 250 ppm [8]: 40%

SMILES: CSCc1cc(N)c(Cl)c(C(=O)O)n1 [Compound 10, 4-Amino-3-chloro-6-[(methylthio)methyl]pyridine-2-carboxylic acid]
pest or weed control at 560 ppm [1]: 0% | pest or weed control at 560 ppm [2]: 0% | pest or weed control at 560 ppm [3]: 0% | pest or weed control at 250 ppm [4]: 85% | pest or weed control at 250 ppm [5]: 20% | pest or weed control at 250 ppm [6]: 0% | pest or weed control at 560 ppm [7]: 0% | pest or weed control at 250 ppm [8]: 70%

SMILES: C=CCc1cc(N)c(Cl)c(C(=O)O)n1 [Compound 11, 6-Allyl-4-amino-3-chloropyridine-2-carboxylic acid]
pest or weed control at 560 ppm [1]: 80% | pest or weed control at 560 ppm [2]: 0% | pest or weed control at 560 ppm [3]: 40% | pest or weed control at 250 ppm [4]: 85% | pest or weed control at 250 ppm [5]: 0% | pest or weed control at 250 ppm [6]: 0% | pest or weed control at 560 ppm [7]: 0% | pest or weed control at 250 ppm [8]: 70%

melting point: 113 to 114 °C
SMILES: COC(=O)c1nc(C)c(F)c(N)c1Cl [Compound 12, Methyl 4-amino-3-chloro-5-fluoro-6-methylpyridine-2-carboxylate]
pest or weed control at 140 ppm [1]: 100% | pest or weed control at 140 ppm [2]: 100% | pest or weed control at 140 ppm [3]: 100% | pest or weed control at 250 ppm [4]: 100% | pest or weed control at 250 ppm [5]: 95% | pest or weed control at 250 ppm [6]: 80% | pest or weed control at 140 ppm [7]: 98% | pest or weed control at 250 ppm [8]: 100%
